Legend:
Caco-2 [1] = tested on: Caco-2
MDA-MB-231 [2] = tested on: MDA-MB-231
[3] = target: Dual specificity tyrosine-phosphorylation-regulated kinase 1A (Homo sapiens, UniProt Q13627); experiment: Inhibition of human recombinant GST-tagged DYRK1A expressed in Escherichia coli
HCT-116 [4] = tested on: HCT-116
NCI-H727 [5] = tested on: NCI-H727
PC-3 [6] = tested on: PC-3
[7] = target: Glycogen synthase kinase-3 (Sus scrofa, UniProt B2LUN4+I6LNT8); experiment: Inhibition of porcine brain GSK3alpha/beta using GS-1 substrate and ATP
[8] = target: Cyclin-dependent kinase 5/CDK5 activator 1 (Homo sapiens, UniProt Q00535); experiment: Inhibition of human recombinant CDK5/p25 using histone H1 substrate and ATP; format: protein-complex assay
Sequence of Cyclin-dependent kinase 5/CDK5 activator 1 (Q00535 whole entry): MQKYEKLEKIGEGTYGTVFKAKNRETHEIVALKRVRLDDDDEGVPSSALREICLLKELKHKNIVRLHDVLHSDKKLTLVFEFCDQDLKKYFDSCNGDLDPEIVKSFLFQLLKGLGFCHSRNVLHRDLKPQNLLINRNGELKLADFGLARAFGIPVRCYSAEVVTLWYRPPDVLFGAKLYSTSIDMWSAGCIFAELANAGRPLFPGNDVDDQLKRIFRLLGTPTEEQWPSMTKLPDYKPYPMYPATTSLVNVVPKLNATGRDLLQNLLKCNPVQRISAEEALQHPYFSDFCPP
Sequence of Cyclin-dependent kinase 5/CDK5 activator 1 (Q15078 whole entry, further chain): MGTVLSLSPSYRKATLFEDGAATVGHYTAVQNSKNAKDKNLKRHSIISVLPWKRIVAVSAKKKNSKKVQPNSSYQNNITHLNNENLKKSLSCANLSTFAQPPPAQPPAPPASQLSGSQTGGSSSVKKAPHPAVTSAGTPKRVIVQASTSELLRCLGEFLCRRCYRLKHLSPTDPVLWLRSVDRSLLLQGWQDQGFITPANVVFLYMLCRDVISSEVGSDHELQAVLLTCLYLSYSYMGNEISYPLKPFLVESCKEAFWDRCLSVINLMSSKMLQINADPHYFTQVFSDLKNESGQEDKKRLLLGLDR

[9] = Selectivity index, ratio of IC50 for human recombinant CDK5/p25 to porcine brain GSK3alpha/beta
HCT-116 [10] = experiment: cells; details: Homo sapiens, HCT-116, 48 h
cells = details: Homo sapiens, Huh-7, 48 h
Caco-2 [11] = experiment: cells; details: Homo sapiens, Caco-2, 48 h
PC-3 [12] = experiment: cells; details: Homo sapiens, PC-3, 48 h
MDA-MB-231 [13] = experiment: cells; details: Homo sapiens, MDA-MB-231, 48 h
NCI-H727 [14] = experiment: cells; details: Homo sapiens, NCI-H727, 48 h

Row | IC50 [3] [nM] | IC50 [7] [nM] | IC50 [8] [nM] | Ratio IC50 [9] | Compound | also measured
1 |  | 33 |  | 7.2 | O=C(Nc1ccccn1)Nc1cccc2c1C1CC3(CCN1C2=O)SCCS3 (configuration not stated) | 
2 |  | 1900 |  | > 5.2 | Cn1ccc(NC(=O)Nc2cccc3c2C2CC4(CCN2C3=O)SCCS4)n1 (configuration not stated) | 
3 |  | 55 |  |  | Cc1cnc(NC(=O)Nc2cccc3c2C2CC4(CCN2C3=O)SCCS4)cn1 (configuration not stated) | IC50 (HCT-116 [10]): 200 nM; IC50 (cells): 300 nM; IC50 (Caco-2 [11]): 500 nM; IC50 (PC-3 [12]): 400 nM; IC50 (MDA-MB-231 [13]): 400 nM; IC50 (NCI-H727 [14]): 800 nM
4 |  | 1200 | 3600 |  | O=C1CCN2C(=O)c3cccc(NC(=O)Nc4cnccn4)c3C2C1 (configuration not stated) | 
5 |  | 610 |  | 5 | Cc1cccnc1NC(=O)Nc1cccc2c1C1CC3(CCN1C2=O)OCCO3 (configuration not stated) | 
6 |  | 68 |  | 107 | O=C(Nc1ccc(Br)cn1)Nc1cccc2c1C1CC3(CCN1C2=O)SCCS3 (configuration not stated) | 
7 |  | 2000 |  | > 5 | Cc1cccc(NC(=O)Nc2cccc3c2C2CC4(CCN2C3=O)SCCS4)n1 (configuration not stated) | 
8 |  | 4000 |  | > 2.5 | COc1cc(NC(=O)Nc2cccc3c2C2CC4(CCN2C3=O)SCCS4)nc2ccccc12 (configuration not stated) | 
9 |  | 230 | 1600 |  | O=C1CCN2C(=O)c3cccc(NC(=O)Nc4ccccn4)c3C2C1 (configuration not stated) | 
10 |  | 920 |  | > 10 | Cc1cccc(NC(=O)Nc2cccc3c2C2CC4(CCN2C3=O)OCCO4)n1 (configuration not stated) | 
11 |  | 44 |  |  | O=C(Nc1cnccn1)Nc1cccc2c1C1CC3(CCN1C2=O)SCCS3 (configuration not stated) | IC50 (HCT-116 [10]): 100 nM; IC50 (cells): 100 nM; IC50 (Caco-2 [11]): 500 nM; IC50 (PC-3 [12]): 600 nM; IC50 (MDA-MB-231 [13]): 150 nM; IC50 (NCI-H727 [14]): 400 nM
12 |  |  | 2100 |  | O=C(Nc1ccccn1)Nc1cccc2c1[C@@H]1C[C@H](O)CCN1C2=O | 

The remaining lines, values behind:

Row | Compound | IC50 [3] [nM] | IC50 [7] [nM] | IC50 [8] [nM] | Ratio IC50 [9] | also measured
13 | COc1cc(NC(=O)Nc2cccc3c2[C@@H]2C[C@H](O)CCN2C3=O)nc2ccccc12 (relative stereo) | > 10000 | 35 | 4900 |  | IC50 (Caco-2 [1]): Not Active; IC50 (MDA-MB-231 [2]): Not Active; IC50 (HCT-116 [4]): Not Active; IC50 (NCI-H727 [5]): Not Active; IC50 (PC-3 [6]): Not Active
14 | COc1cc(NC(=O)Nc2cccc3c2C2CC4(CCN2C3=O)OCCO4)nc2ccccc12 (configuration not stated) |  | 1000 |  | > 10 | 
15 | CO[C@@H]1CCN2C(=O)c3cccc(NC(=O)Nc4ccccn4)c3[C@@H]2C1 (relative stereo) | > 10000 | 81 | 550 | 6.8 | 
16 | CO[C@@H]1CCN2C(=O)c3cccc(NC(=O)Nc4cnccn4)c3[C@@H]2C1 (relative stereo) | > 10000 | 200 | 480 | 2.4 | 
17 | CO[C@@H]1CCN2C(=O)c3cccc(NC(=O)Nc4ncccc4C)c3[C@@H]2C1 (relative stereo) | > 10000 |  | 1100 |  | 
18 | CO[C@@H]1CCN2C(=O)c3cccc(NC(=O)Nc4ccn(C)n4)c3[C@@H]2C1 (relative stereo) | > 10000 |  | 2300 |  | 
19 | O=C(Nc1cnccn1)Nc1cccc2c1[C@@H]1C[C@H](O)CCN1C2=O (relative stereo) | > 10000 | 32 | 84 |  | IC50 (Caco-2 [1]): Not Active; IC50 (MDA-MB-231 [2]): Not Active; IC50 (HCT-116 [4]): Not Active; IC50 (NCI-H727 [5]): Not Active; IC50 (PC-3 [6]): Not Active
20 | CO[C@@H]1CCN2C(=O)c3cccc(NC(=O)Nc4cc(C)ccn4)c3[C@@H]2C1 (relative stereo) | > 10000 | 32 | 320 | 10 | IC50 (HCT-116 [10]): 30 nM; IC50 (cells): 100 nM; IC50 (Caco-2 [11]): 500 nM; IC50 (PC-3 [12]): 400 nM; IC50 (MDA-MB-231 [13]): 300 nM; IC50 (NCI-H727 [14]): 400 nM
21 | CO[C@@H]1CCN2C(=O)c3cccc(NC(=O)Nc4cccc(C)n4)c3[C@@H]2C1 (relative stereo) | > 10000 | 320 | 4300 | 13.4 | 
22 | Cc1cccnc1NC(=O)Nc1cccc2c1[C@@H]1C[C@H](O)CCN1C2=O (relative stereo) |  |  | 630 |  | 
23 | COc1cc(NC(=O)Nc2cccc3c2[C@@H]2C[C@H](OC)CCN2C3=O)nc2ccccc12 (relative stereo) | > 10000 | 180 | 8500 | 47.5 | 
24 | Cc1cccc(NC(=O)Nc2cccc3c2[C@@H]2C[C@H](O)CCN2C3=O)n1 |  |  | 1000 |  | IC50 (Caco-2 [1]): Not Active; IC50 (MDA-MB-231 [2]): Not Active; IC50 (HCT-116 [4]): Not Active; IC50 (NCI-H727 [5]): Not Active; IC50 (PC-3 [6]): Not Active
25 | CO[C@@H]1CCN2C(=O)c3cccc(NC(=O)Nc4cnc(C)cn4)c3[C@@H]2C1 (relative stereo) | > 10000 | 140 | 320 | 10 | 

Reference: ChEMBL document CHEMBL3608270, “Advances in tetrahydropyrido[1,2-a]isoindolone (valmerins) series: Potent glycogen synthase kinase 3 and cyclin dependent kinase 5 inhibitors” (Eur J Med Chem, 2015)
